Data from article PMC6938011, “Antiplasmodial profile of selected compounds from Malaria Box: in vitro evaluation, speed of action and drug combination studies” (Malaria Journal, 2019).
Entries after “also recorded” stand apart in the source; their conditions may differ. Like-named read-outs stand apart in the source and are kept apart here.

What was measured:
P. berghei NK65 strain = test: In vivo suppressive parasite growth test against Plasmodium berghei; set-up: species or system Swiss outbred mice; conditions: 20 mg/kg, positive control, P. berghei-infected mice
Experimental: A suppressive parasite growth test was performed in mice infected with P. berghei NK65 strain (originally received from the New York University Medical School), as described previously, with some modifications. Briefly, adult Swiss outbred mice (20 ± 2 g weight) were intraperitoneally inoculated with 1 × 10^5 red blood cells infected with P. berghei. The infected mice were maintained together for at least 2 h and then randomized into groups of 5 animals per cage, which were subsequently administered 50 mg/kg of each compound diluted in 3% (v/v) DMSO by oral gavage daily for 3 days. Two control groups were used in parallel: one was treated with CQ (20 mg/kg) and the other was treated with the vehicle. Blood smears from mouse tails were prepared on days 5 and 7 post-infection and then fixed with methanol, stained with Giemsa 10% (v/v), and examined under the microscope.

P. falciparum 3D7 strain [1] = tested on: P. falciparum 3D7 strain; set-up: method as in PMID 23798988; conditions: reported potency of Malaria Box compounds ref 13, read-out: Reported IC50^Pf; cited from earlier work
P. falciparum 3D7 strain [2] = test: SYBR Green I inhibition assay for the asexual stages of P. falciparum; assay type: cell-based, Plasmodium falciparum; conditions: 72 h, read-out: IC50^Pf Average (confidence interval-95%)
Experimental: The P. falciparum 3D7 strain was kept in culture in a humidified incubator at 37 °C in RPMI-1640 medium with 25 mM NaHCO3, 25 mM HEPES (pH 7.4), 11 mM D-glucose, 3.67 mM hypoxanthine and 25 µg/mL gentamicin, supplemented with 0.5% (m/v) AlbuMAX II. The culture medium was changed daily, and the parasitaemia was maintained below 10% with 2.5% haematocrit in human erythrocytes.
The parasites were synchronized through sterile 5% (m/v) D-sorbitol treatment over 10 min at 37 °C for the enrichment of ring-stage parasites. The cultures were pelleted by centrifugation at 600×g over 5 min. The parasitaemia was determined by microscope analysis of thin blood smears stained with Giemsa 10% (v/v) after methanol fixation. The initial parasitaemia was calculated from 1000 red blood cells (RBCs), and cultures were diluted to 0.5% parasitaemia and 2% haematocrit by adding the appropriate volumes of erythrocytes and medium. Parasite aliquots of 180 µL were distributed into 96-well plates previously prepared with 20 µL aliquots of a tenfold concentrated compound. Negative and positive control wells corresponding to non-parasitized erythrocytes and parasite cultures in the absence of compounds were set in parallel. The DMSO concentration was maintained below 0.05% (v/v). The plates were incubated for 72 h at 37 °C in a humidified incubator with a gas mixture of 90% N2, 5% O2 and 5% CO2. After incubation, the culture medium was removed, and the cells were resuspended in 100 µL PBS buffer (116 mM NaCl, 10 mM Na2HPO4, 3 mM KH2PO4) and lysed with 100 µL lysis buffer (20 mM Tris base, 5 mM EDTA, 0.0008% (v/v) Triton X-100, 0.008% (m/v) saponin, pH 8.0) containing 0.002% (v/v) SYBR Green I. Plates were incubated at room temperature for 30 min, and the fluorescence corresponding to the parasitic density was determined using a SpectraMAX Gemini EM plate reader (Molecular Devices Corp., Sunnyvale, CA) (excitation at 485 nm, emission at 535 nm). The half maximal inhibitory concentration (IC50^Pf) was determined by non-linear regression analysis of the resulting concentration-response curve using the software Origin 2016 (OriginLab Corporation).

P. falciparum = test: Combination assays, isobologram analysis (FIC50 pairs); assay type: cell-based, Plasmodium falciparum; conditions: for Isobologram data, Additive: fraction of FIC50 pairs / Isobologram data, Additive: number of FIC50 pairs / Isobologram data, Antagonistic: fraction of FIC50 pairs / Isobologram data, Antagonistic: number of FIC50 pairs / Isobologram data, Synergic: number of FIC50 pairs: combination with artesunate; for Combination profile with artesunate: isobologram, IC50 equivalent ratios 1:4, 2:3, 1:1, 3:2, 4:1
Experimental: Combinations of anti-malarial candidates with artesunate, an artemisinin derivative, were tested in fixed molar ratios based on the individual IC50 values that were previously determined by the SYBR Green I assay. Traditionally, a line (isobole) of additivity is used to distinguish between additive, synergic, and antagonistic interaction profiles. […] Thus, a systematic consideration of additivity ranges was included in the isobologram analysis, as previously described by Grabovsky and Tallarida. Concentration-response curves of individual compounds were used in the calculation of each pair’s additivity range (area within the upper and lower limits in Figs. 4 and 5). Fractional inhibitory concentration (FIC50) pairs plotted as points inside the additivity range indicate the expected sum of each compound effect, while points above and below the range indicate antagonistic and synergic interactions, respectively. The selected inhibitors were combined with artesunate in the IC50 equivalent ratios of 1:4, 2:3, 1:1, 3:2 and 4:1 for the construction of the isobolograms.

[3] = tested on: asexual intraerythrocytic stages of P. falciparum; test: Speed of action studies (microscopy of thin blood smears); assay type: cell-based, Plasmodium falciparum; conditions: ring-stage parasites; for Parasite morphology during incubation: compound at tenfold the IC50, microscopy up to 36 h; for Speed of action: compound at tenfold the IC50, observed 0-36 h
Experimental: Parasites in thin blood smears were observed by microscopy after 0, 8, 16, 24 and 36 h of incubation.

[4] = tested on: Hepatocarcinoma cells (HepG2); test: Cytotoxicity evaluation, neutral red assay; assay type: cell-based, human; conditions: HepG2, 72 h, read-out: IC50^HepG2, NR Average (confidence interval-95%)
Experimental: (§1) Hepatocarcinoma cells (HepG2) were cultivated in RPMI medium supplemented with 10% (v/v) fetal bovine serum and 0.2% (v/v) penicillin/streptomycin. The antibiotics were added to the medium to eliminate the potential interference of microbial contamination. Cells were cultivated at 37 °C and 5% CO2; the supplemented medium was changed every 2 days.
(§2) For the experimental procedures, cells were trypsinized and transferred to a 96-well plate at 30,000 cells per well and incubated at 37 °C overnight for cell adhesion. Then, serial dilutions of the inhibitor candidates were added to the plate. Cells without any compounds were used as positive growth controls. The plate was incubated at 37 °C and 5% CO2 for 72 h. After incubation, the highest compound concentration to be considered (highest concentration without precipitation) was observed by microscopy. Cytotoxicity was evaluated by two different methods. The first is a colorimetric assay based on metabolic cell activity in the presence of 3-(4,5-dimethylthiazol-2-yl)-2,5-diphenyltetrazolium bromide (MTT). Briefly, mitochondrial enzymes can convert the MTT dye into the purple insoluble compound formazan. To each well, 20 µL MTT at 5 mg/mL was added, followed by incubation at 37 °C for 3 to 5 h. After incubation, the supernatant was removed, and formazan crystals were solubilized in 100 µL DMSO. The absorbance, which is proportional to the number of viable cells, was determined using a SpectraMAX Plus 384 plate reader (Molecular Devices Corp., Sunnyvale, CA) (λ = 570 nm). The second method is based on the uptake of neutral red, a dye that is retained inside the lysosomes of viable cells. To each well, after removal of culture media, 200 µL neutral red medium 40 µg/mL was added, followed by incubation at 37 °C for 3 to 5 h. After incubation, supernatant was dispensed, and 200 µL 0.5% (v/v) formaldehyde in 1% (m/v) CaCl2 was added to remove excess of the dye for 5 min. Supernatant was dispensed, and 100 µL alcohol-acid solution (50% (v/v) ethanol, 1% (v/v) glacial acetic acid) was added, and the plate was stirred until a homogeneous solution was formed. The absorbance was determined using a SpectraMAX Plus 384 plate reader (Molecular Devices Corp., Sunnyvale, CA) (λ = 540 nm). For both methods, the half maximal inhibitory concentration (IC50^HepG2) was determined by non-linear regression analysis of the resulting concentration-response curve using the software Origin 2016 (OriginLab Corporation).

[5] = tested on: Hepatocarcinoma cells (HepG2); test: Cytotoxicity evaluation, MTT assay; assay type: cell-based, human; conditions: HepG2, 72 h, read-out: IC50^HepG2, MTT Average (confidence interval-95%)
Experimental: as §1, §2

| IC50 (P. falciparum 3D7 strain [2]) [nM] | Structure (SMILES) | % of reduction of parasitaemia, day 5 after infection (P. berghei NK65 strain) [%] | % of reduction of parasitaemia, day 7 after infection (P. berghei NK65 strain) [%] | IC50 (P. falciparum 3D7 strain [1]) [nM] | Isobologram data, Additive: fraction of FIC50 pairs (P. falciparum) [%] | Isobologram data, Additive: number of FIC50 pairs (P. falciparum) | Isobologram data, Antagonistic: fraction of FIC50 pairs (P. falciparum) [%] | Isobologram data, Antagonistic: number of FIC50 pairs (P. falciparum) | Isobologram data, Synergic: number of FIC50 pairs (P. falciparum) | Combination profile with artesunate (P. falciparum) | Combination profile with artesunate (P. falciparum; listed as 01) | Parasite morphology during incubation [3] | Speed of action [3] | IC50 [4] [nM] | IC50 [5] [nM] | Combination profile with artesunate (P. falciparum; listed as 03) | Combination profile with artesunate (P. falciparum; listed as 04) | Combination profile with artesunate (P. falciparum; listed as 05) | Combination profile with artesunate (P. falciparum; listed as 07) |
| --- | --- | --- | --- | --- | --- | --- | --- | --- | --- | --- | --- | --- | --- | --- | --- | --- | --- | --- | --- |
| 74 | CN1CCN(c2ccc(Nc3c4ccccc4nc4ccccc34)cc2)CC1 [Compound 1] |  |  | 142 | 8 | 1 | 92 | 11 | 0 | antagonistic | Antagonism | pyknotic nuclei formation | Fast | 3340 | 3210 |  |  |  |  |
| 250 | CCn1c(CN2CCN(Cc3ccccc3)CC2)nc2cc(NC(=O)c3cccs3)ccc21 [Compound 5] |  |  | 512 | 15 | 2 | 85 | 11 | 0 |  |  | punctual shapes after 16 h | fast-acting and Fast | > 100000 | 90000 |  |  | Antagonism |  |
| 1000 | O=C(Nc1ccc(C23CC4CC(CC(c5ccccc5)(C4)C2)C3)cc1)c1cccs1 [Compound 7] |  |  | 826 | 22 | 2 | 78 | 7 | 0 |  |  | punctual shapes after 16 h | fast-acting and Fast | > 25000 | > 25000 |  |  |  | Antagonism |

More lines, now with the values behind:

| Structure (SMILES) | IC50 (P. falciparum 3D7 strain [2]) [nM] | % of reduction of parasitaemia, day 5 after infection (P. berghei NK65 strain) [%] | % of reduction of parasitaemia, day 7 after infection (P. berghei NK65 strain) [%] | IC50 (P. falciparum 3D7 strain [1]) [nM] | Isobologram data, Additive: fraction of FIC50 pairs (P. falciparum) [%] | Isobologram data, Additive: number of FIC50 pairs (P. falciparum) | Isobologram data, Antagonistic: fraction of FIC50 pairs (P. falciparum) [%] | Isobologram data, Antagonistic: number of FIC50 pairs (P. falciparum) | Isobologram data, Synergic: number of FIC50 pairs (P. falciparum) | Combination profile with artesunate (P. falciparum) | Combination profile with artesunate (P. falciparum; listed as 01) | Parasite morphology during incubation [3] | Speed of action [3] | IC50 [4] [nM] | IC50 [5] [nM] | Combination profile with artesunate (P. falciparum; listed as 03) | Combination profile with artesunate (P. falciparum; listed as 04) | Combination profile with artesunate (P. falciparum; listed as 05) | Combination profile with artesunate (P. falciparum; listed as 07) |
| --- | --- | --- | --- | --- | --- | --- | --- | --- | --- | --- | --- | --- | --- | --- | --- | --- | --- | --- | --- |
| CCN(CC)CCCC(C)Nc1ccnc2cc(Cl)ccc12 (centres unmarked) [Chloroquine, reference compound] |  | 100 | 100 |  |  |  |  |  |  |  |  |  |  |  |  |  |  |  |  |
| Brc1ccc(Nc2nc3ccccc3nc2Nc2ccc(Br)cc2)cc1 [Compound 3] | 340 |  |  | 1060 | 38 | 5 | 62 | 8 | 0 |  |  | punctual shapes after 16 h | Fast | > 6250 | 5100 | Antagonism |  |  |  |
| O=[N+]([O-])c1ccc(C=NNc2nc3ccccc3[nH]2)cc1 [Compound 4] | 440 |  |  | 142 | 8 | 1 | 92 | 12 | 0 |  |  | young trophozoites were observed after 36 h | slow-acting and Slow | > 6250 | > 6250 |  | Antagonism |  |  |
| Fc1ccc2[nH]c3c(NCCCN4CCOCC4)ncnc3c2c1 [Compound 11] | 1600 |  |  | 345 |  | 0 | 100 | 12 | 0 | antagonistic; also recorded: Antagonism |  | punctual shapes after 16 h | Fast | > 50000 | > 50000 |  |  |  |  |
